The record followed here is patent US5385947A, “Octahydrophenanthrene derivatives” (Hoffmann-La Roche Inc., priority 1993, dated 1995).

Where a name gives a salt, the structure may show the parent alone.

Broadly, the IC50 is the concentration that gives 50% inhibition. Lower therefore signals inhibition by little substance.

For data set [1], the target named is specific binding sites of dizocilpine ([3H]-MK801) in the rat cortex. Put plainly: 3H-MK801 (dizocilpine) binding test: inhibition of the binding of dizocilpine to the specific binding sites in rat cortex. The following applies: 50 percent inhibition of specific binding of dizocilpine. The protocol:
The pharmacological activity of some compounds in accordance with the invention and of rac-cis-4b-(2-amino-ethyl)4b,5,6,7,8,8a,9,10-octahydro-phenanthren-8a-ol was determined in vitro according to the method described in Europ. J. Pharmacol. 135, 261 (1987). According to this method [namely the 3H-MK801 (dizocilpine) binding test] the inhibition of the binding of dizocilpine to the specific binding sites in rat cortex by the respective test substances is determined. The IC50 ("50% inhibiting concentration") is that concentration of the respective test substance which brings about a 50 percent inhibition of the specific binding of dizocilpine to the specific binding sites in the rat cortex.
(§1) The thus-determined activity of some compounds in accordance with the invention will be evident from the IC50 values set forth in the following Table; moreover, the Table contains data concerning their toxicity (lowest lethal dosage=LLD in the mouse, p.o.).

A further data set concerns mouse. Put plainly: Toxicity (lowest lethal dosage, LLD) in the mouse, p.o. It counts as in vivo.
Source text: as §1

Regarding `Cl.NCC[C@@]12CCCC[C@]1(O)CCc1c(F)cc(Cl)cc12` (racemic) [rac-cis-4b-(2-Amino-ethyl)-3-chloro-1-fluoro-4b,5,6,7,8,8a,9,10-octahydro-phenanthren-8a-ol hydrochloride], the IC50 in data set [1] was 107 nM. In the data set on mouse, the “Toxicity LLD (lowest lethal dosage)” value was 1000 mg/kg.

The compound `Cl.NCC[C@@]12CCCC[C@]1(O)CCc1ccc(Cl)cc12` (racemic) [rac-cis-4b-(2-Amino-ethyl)-3-chloro-4b,5,6,7,8,8a,9,10-octahydro-phenanthren-8a-ol hydrochloride] showed an IC50 in data set [1] of 84.7 nM. Further, the “Toxicity LLD (lowest lethal dosage)” value in the data set with mouse is on record as 500 mg/kg.

In the case of `Cl.NCC[C@@]12CCCC[C@]1(O)CCc1ccccc12` (racemic) [rac-cis-4b-(2-Amino-ethyl)-4b,5,6,7,8,8a,9,10-octahydro-phenanthren-8a-ol hydrochloride], the concentration for half-maximal inhibition (IC50) in data set [1] stood at 93 nM. Besides, in the data set on mouse, the “Toxicity LLD (lowest lethal dosage)” value came to 250 mg/kg.

`Cl.NCC[C@@]12CCCC[C@]1(O)CCc1ccc(O)cc12` (racemic) [rac-cis-4b-(2-Amino-ethyl)-4b,5,6,7,8,8a,9,10-octahydro-phenanthrene-3,8a-diol hydrochloride] yielded an IC50 in data set [1] of 73.4 nM. For the same compound, in the data set with mouse, the “Toxicity LLD (lowest lethal dosage)” value is reported as 1000 mg/kg.

As for `CN(C)CC[C@@]12CCCC[C@]1(O)CCc1ccccc12` (racemic) [rac-cis-4b-(2-Dimethylamino-ethyl)-4b,5,6,7,8,8a,9,10-octahydro-phenanthren-8a-ol hydrochloride], the IC50 in data set [1] came out at 453 nM.

`CN(C)CC[C@@]12CCCC[C@]1(O)CCc1ccc(Cl)cc12.Cl` (single isomer, unassigned) [(-)-cis-3-Chloro-4b-(2-dimethylamino-ethyl)-4b,5,6,7,8,8a,9,10-octahydro-phenanthren-8a-ol hydrochloride] displayed an IC50 in data set [1] of 254 nM. The “Toxicity LLD (lowest lethal dosage)” value in the data set with mouse is recorded as 375 mg/kg.
